From patent US8772297B2, “TGF-β signal transduction inhibitor” (Kyoto University, priority 2010, dated 2014)

Each compound was assayed on TGF-β signal transduction (Smad3/Smad4 complex activation) in x9CAGA/CCL64 cells (assay: Evaluation of TGF-β signal transduction inhibitory activity (CAGA-luciferase reporter, x9CAGA/CCL64 cells stimulated with human TGF-β1)). Settings: 0.5 ng/ml human TGF-β1.
Assay type: cell-based, mink
Description: The biological activity of a compound was determined by measuring the activation of Smad3/Smad4 complex which is a transcription factor showing activation induced by TGF-β stimulation. That is, a reporter plasmid having a DNA sequence (CAGA sequence), which is activated by binding to Smad3/Smad4 complex, is linked to the upstream of the luciferase gene (luminescence enzyme) was prepared. Mink lung epithelial cells CCL64 (named as x9CAGA/CCL64 cells) stably incorporating this reporter plasmid were established. The x9CAGA/CCL64 cells were cultured in DMEM medium containing 10% FBS, penicillin (100 U/ml), streptomycin ([…]), and blasticidin S (1 μg/ml). The x9CAGA/CCL64 cells were seeded in a 96 well plate at a concentration of 1.0×10^4 cells/well, and cultured in a 5% CO2 incubator at 37° C. The next day, the medium was changed to DMEM medium containing 0.2% FBS, and the test compound was added. […] After culture for 16 hr, the cells were washed with PBS, and lysed with 30 μl of cell lysis solution. […] The luminescence level of each well was measured using a Packard EnVision plate reader. The TGF-β signal transduction inhibitory activity of each compound in the x9CAGA/CCL64 cells was calculated from the ratio of the measurement values of the test compound-free well and the well with addition.

First: Cc1c(C)c(S(=O)(=O)NCC2CCN(C(=O)OC(C)(C)C)CC2)c(C)c(S(=O)(=O)Nc2ccc(C(C)(C)C)cc2)c1C [Y335, 4-{[3-(4-tert-butylphenylsulfamoyl)-2,4,5,6-tetramethylbenzenesulfonylamino]methyl}piperidine-1-carboxylic acid tert-butyl ester]
Second: CCCC(=O)N1CCC(CNS(=O)(=O)c2cccc(S(=O)(=O)Nc3ccc(N(C)C)c(-c4ccco4)c3)c2)CC1 [Y639, 4-{[3-(4-dimethylamino-3-furan-2-yl-phenylsulfamoyl)benzenesulfonylamino]methyl}-1-butyryl-piperidine]
The IC50 of the first is 4.9-fold lower: 0.8 µM for the first, 3.9 µM for the second.

`CN(C)c1ccc(NS(=O)(=O)c2cccc(S(=O)(=O)NCC3CCNCC3)c2)cc1-c1ccco1` [Y516, 4-{[3-(4-dimethylamino-3-furan-2-yl-phenylsulfamoyl)benzenesulfonylamino]methyl}piperidine] showed an IC50 of 66 µM.

Same assay, conditions: 20 μM test compound, 0.5 ng/ml human TGF-β1

For “4-{[3-(4-oxanylmethoxyphenylsulfamoyl)benzenesulfonylamino]methyl}-piperidine-1-carboxylic acid tert-butyl ester [Y198]”, the “inhibitory activity (%)” value was “(>30.0%)”.

Going from `Cc1ccc(N(C)S(=O)(=O)c2cccc(S(=O)(=O)N(C)CC3CCN(C(=O)OC(C)(C)C)CC3)c2)cc1` [Y191, 4-({methyl-[3-(methyl-p-tolylsulfamoyl)benzenesulfonyl]amino}methyl)piperidine-1-carboxylic acid tert-butyl ester] to `CN(CC1CCN(C(=O)OC(C)(C)C)CC1)S(=O)(=O)c1cccc(S(=O)(=O)N(C)c2ccc(C(C)(C)C)cc2)c1` [Y205, 4-[({3-[(4-tert-butylphenyl)methylsulfamoyl]benzenesulfonyl}methylamino)-methyl]piperidine-1-carboxylic acid tert-butyl ester], the inhibition at 20 µM rises from 54% to 60%.

`CC(=O)c1ccc(NS(=O)(=O)c2cccc(S(=O)(=O)NCC3CCN(C(=O)OC(C)(C)C)CC3)c2)cc1` [Y192, 4-{[3-(4-acetylphenylsulfamoyl)benzenesulfonylamino]methyl}piperidine-1-carboxylic acid tert-butyl ester] and `CC(O)c1ccc(NS(=O)(=O)c2cccc(S(=O)(=O)NCC3CCN(C(=O)OC(C)(C)C)CC3)c2)cc1` (centres unmarked) [Y195, 4-({3-[4-(1-hydroxyethyl)phenylsulfamoyl]benzenesulfonylamino}methyl)-piperidine-1-carboxylic acid tert-butyl ester] cannot be ordered by inhibition at 20 µM: over 18.4% for the first, over 12.2% for the second.

Same assay, conditions: 50 μM test compound, 0.5 ng/ml human TGF-β1

Compared with `CC(C)(C)OC(=O)N1CCC(CNS(=O)(=O)c2cccc(S(=O)(=O)N3CCCCC3)c2)CC1` [Y029, 4-{[3-(piperidine-1-sulfonyl)benzenesulfonylamino]methyl}piperidine-1-carboxylic acid tert-butyl ester], `CC(C)(C)OC(=O)N1CCC(CNS(=O)(=O)c2cccc(S(=O)(=O)N3CCOCC3)c2)CC1` [Y081, 4-{[3-(morpholine-4-sulfonyl)benzenesulfonylamino]methyl}piperidine-1-carboxylic acid tert-butyl ester] is lower in inhibition at 50 µM: 88% for the first, 45% for the second.

First: CC(C)(C)OC(=O)N1CCN(S(=O)(=O)c2cccc(S(=O)(=O)N3CCCCC3)c2)CC1 [Y043, 4-[3-(piperidine-1-sulfonyl)benzenesulfonyl]piperazine-1-carboxylic acid tert-butyl ester]
Second: CC(C)(C)OC(=O)N1CCC(CNS(=O)(=O)c2cccc(S(=O)(=O)NCC3CCCCC3)c2)CC1 [Y101, 4-{[3-(cyclohexylmethylsulfamoyl)benzenesulfonylamino]methyl}-piperidine-1-carboxylic acid tert-butyl ester]
The inhibition at 50 µM of the first is lower: 67% for the first, 74% for the second.

First: O=C(OCc1ccccc1)N1CCC(CNS(=O)(=O)c2cccc(S(=O)(=O)N3CCCCC3)c2)CC1 [Y053, 4-{[3-(piperidine-1-sulfonyl)benzenesulfonylamino]-methyl}-piperidine-1-carboxylic acid benzyl ester]
Second: CC(C)(C)OC(=O)N1CCC(CNS(=O)(=O)c2cccc(S(N)(=O)=O)c2)CC1 [Y082, 4-[(3-sulfamoylbenzenesulfonylamino)methyl]piperidine-1-carboxylic acid tert-butyl ester]
The inhibition at 50 µM of the first is higher: 67% for the first, 29% for the second.

Compared with `CCN(CC)S(=O)(=O)c1cccc(S(=O)(=O)NCC2CCN(C(=O)OC(C)(C)C)CC2)c1` [Y080, 4-[(3-diethylsulfamoylbenzenesulfonylamino)methyl]piperidine-1-carboxylic acid tert-butyl ester], `CC(C)(C)OC(=O)N1CCC(CNS(=O)(=O)c2ccccc2)CC1` [Y083, 4-(benzenesulfonylaminomethyl)piperidine-1-carboxylic acid tert-butyl ester] is lower in inhibition at 50 µM: 66% for the first, 24% for the second.

Each compound was assayed on mouse bile duct ligation induced hepatic fibrosis model (assay: Anti-fibrillization action in mouse bile duct ligation induced hepatic fibrosis model (BDL model)). Settings: ICR mice, tail vein once a day for 14 days, qPCR vs GAPDH, FIG. 4.
Assay type: in vivo
Description: Hepatopathy caused by accumulation of bile in the liver and therewith associated liver fibrillization are induced by ligating the bile duct of mouse. The effect of the test compound on the hepatopathy and liver fibrillization associated therewith was evaluated. […]
mRNA was extracted from the hepatic tissue preserved in RNALater by using an RNA purification kit RNeasy Micro Kit (manufactured by QIAGEN), and the RNA concentration was determined using a spectrophotometer (Nano Drop). […] Using SYBR® Premix EX Taq™ (manufactured by TAKARA), a reaction mixture was prepared according to the package insert, qPCR reaction was performed using respective primers for αSMA and the internal standard GAPDH (manufactured by Invitrogen), and the mRNA expression level was quantified.

With `CN(C)c1ccc(NS(=O)(=O)c2cccc(S(=O)(=O)NCC3CCNCC3)c2)cc1-c1ccco1` [Y516, 4-{[3-(4-dimethylamino-3-furan-2-yl-phenylsulfamoyl)benzenesulfonylamino]methyl}piperidine] the “mRNA expression level of α smooth muscle actin in the liver tissue” value was “significantly suppressed”.
